Experimental data from PubChem BioAssay (NCI).
Where “and” joins values, the source holds several entries; their conditions need not be identical. Equal values may be shown once.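 Cells were grown in 96-well plates and exposed to each compound for 48 hours at five concentrations; endpoints were interpolated linearly between bracketing concentrations, or set to the highest concentration if not reached. At the GI50, growth is halved. TGI is the concentration that stops growth completely.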

What was measured:
Assay in all cases: NCI-60 cell line screen, 48 h
A498 renal = system: A498 renal
SF-539 CNS = system: SF-539 CNS
SK-MEL-5 melanoma = system: SK-MEL-5 melanoma
U251 CNS = system: U251 CNS
HCT-116 colon = system: HCT-116 colon
M14 melanoma = system: M14 melanoma
HT29 colon = system: HT29 colon
A549 NSCLC = system: A549 NSCLC
SNB-75 CNS = system: SNB-75 CNS
SF-268 CNS = system: SF-268 CNS

| Structure (SMILES) | GI50 (A498 renal) | TGI (A498 renal) | GI50 (SF-539 CNS) [µM] | TGI (SF-539 CNS) [µM] | GI50 (SK-MEL-5 melanoma) [µM] | TGI (SK-MEL-5 melanoma) | GI50 (U251 CNS) [µM] | TGI (U251 CNS) | GI50 (HCT-116 colon) [µM] | TGI (HCT-116 colon) | GI50 (M14 melanoma) [µM] | TGI (M14 melanoma) | GI50 (HT29 colon) | TGI (HT29 colon) | GI50 (A549 NSCLC) | TGI (A549 NSCLC) | GI50 (SNB-75 CNS) | TGI (SNB-75 CNS) | GI50 (SF-268 CNS) | TGI (SF-268 CNS) |
| --- | --- | --- | --- | --- | --- | --- | --- | --- | --- | --- | --- | --- | --- | --- | --- | --- | --- | --- | --- | --- |
| CON(C)C(=O)N1N=C(c2cc(F)ccc2F)SC1(CCCN)c1ccccc1 (centres undefined) | 0.0452 µM and < 0.01 µM | 13.5 µM and 13.4 µM | 0.027 | 0.351 | < 0.01 | 12.2 µM and 12.6 µM | < 0.01 | 13.4 µM and 13.7 µM | < 0.01 | 16.1 µM and 15.2 µM | < 0.01 | 11.2 µM and 4.38 µM | 0.0301 µM and < 0.01 µM | 5.05 µM and 10.8 µM | 0.024 µM and < 0.01 µM | 17.1 µM and 18.2 µM | 0.0531 µM and < 0.01 µM | 16.2 µM and 15 µM | 0.0217 µM and < 0.01 µM | 17.3 µM and 16 µM |
| OC/C=C(\I)CCCOCOCc1ccccc1 | – | > 100 µM | – | > 100 | – | 54.5 µM | – | 64 µM | – | > 100 µM | – | > 100 µM | – | > 100 µM | – | > 100 µM | – | > 100 µM | – | > 100 µM |
| COc1cc(NS(=O)(=O)c2ccc(-c3cnc(C4CC4)o3)cc2)ccc1F | 0.0833 µM | 0.892 µM | 0.274 | 2.18 | 0.638 | 13.1 µM | 0.572 | 18.1 µM | 0.29 | 14.1 µM | 0.269 | 14.8 µM | 0.268 µM | 12.5 µM | 0.826 µM | > 45.8 µM | 0.158 µM | 0.604 µM | 2.65 µM | 30.7 µM |
| C=C1C(=O)O[C@H]2[C@H]1CC/C(COC(=O)c1cc3ccccc3s1)=C\CC[C@@]1(C)O[C@@H]21 | 10.1 µM | 21.8 µM | 1.6 | 3.34 | 1.75 | 3.21 µM | 1.52 | 3.03 µM | 0.591 | 2.1 µM | 1.75 | 4.24 µM | 0.499 µM | 1.84 µM | 2.04 µM | 4.4 µM | 3.52 µM | 13.4 µM | 1.54 µM | 3.24 µM |
| Cc1[nH]c2ccccc2c1C1Cc2ccccc2N1C(=O)/C(Cl)=C/c1ccccc1 (centres undefined) | – | > 100 µM | – | > 100 | – | > 100 µM | – | > 100 µM | – | > 100 µM | – | > 100 µM | – | > 100 µM | – | > 100 µM | – | 99.6 µM | – | > 100 µM |
| COc1ccc(OC)c(C(=O)c2oc3ccc(Br)cc3c2N)c1 | 0.0923 µM | 1.56 µM | 0.237 | 0.712 | 0.41 | 16.9 µM | 0.397 | 16.4 µM | 0.346 | 13.9 µM | 0.303 | 16.3 µM | 0.326 µM | 10.7 µM | 0.493 µM | > 54.6 µM | 0.253 µM | 1.68 µM | 0.725 µM | > 59.5 µM |
| COc1ccccc1Cn1cc2c(c1-c1ccccc1)CCc1cnoc1-2 | 1.1 µM | 7.18 µM | 2.57 | – | 1.93 | 11.2 µM | 4.06 | > 100 µM | 2.8 | > 100 µM | 2.06 | 17.3 µM | 2.02 µM | 7.3 µM | 4.31 µM | > 100 µM | 2.42 µM | 7.34 µM | 8.34 µM | > 100 µM |
| CC(=O)N1C/C(=C\c2ccc(N(C)C)cc2)C(=O)/C(=C/c2ccc(N(C)C)cc2)C1 | – | > 100 µM | – | 52.2 | – | > 100 µM | – | > 100 µM | – | > 100 µM | – | > 100 µM | – | > 100 µM | – | > 100 µM | – | 49.4 µM | – | > 100 µM |
| COc1cc2c3c(n(CCCCOC(=O)C(Cl)(Cl)Cl)c(=O)c2cc1OC)-c1cc2c(cc1C3=O)OCO2 | > 100 µM | > 100 µM | 60.1 | > 100 | > 100 | > 100 µM | 21.5 | > 100 µM | 17 | 34.2 µM | 24.3 | 71.9 µM | > 100 µM | > 100 µM | > 100 µM | > 100 µM | > 100 µM | > 100 µM | 30 µM | > 100 µM |
| Cc1nc2ccccc2c(=O)n1-c1ccccc1F | – | > 100 µM | – | > 100 | – | > 100 µM | – | > 100 µM | – | > 100 µM | – | > 100 µM | – | > 100 µM | – | > 100 µM | – | > 100 µM | – | > 100 µM |
| FC(F)(F)c1nc(-c2ccccc2)oc1Sc1nnc(Sc2oc(-c3ccccc3)nc2C(F)(F)F)s1 | – | > 100 µM | – | > 100 | – | 33.9 µM | – | > 57.2 µM | – | > 100 µM | – | 28 µM | – | > 100 µM | – | > 100 µM | – | > 100 µM | – | > 100 µM |
| C=C(C)C1CCC2(C(=O)O)CCC3(C)C(CCC4C5(C)CCC(OC(=O)NCc6ccccc6)C(C)(C)C5CCC43C)C12 (centres undefined) | 2.57 µM | > 100 µM | 41.9 | > 100 | 4.82 | > 100 µM | 3.07 | > 100 µM | 2.24 | 19.3 µM | 5.98 | > 100 µM | 3.42 µM | 30.4 µM | 0.961 µM | > 100 µM | 98.4 µM | > 100 µM | 4.84 µM | > 100 µM |
| CCN(CC)CCCC(C)Nc1cnc(C(=O)Nc2cccc3ccc(OC)nc23)cn1 (centres undefined) | 4.52 µM | 18 µM | 1.79 | 3.21 | 1.77 | 3.21 µM | 1.81 | 3.52 µM | 1.62 | 3.44 µM | 1.93 | 3.71 µM | 1.78 µM | 3.51 µM | 2.6 µM | 7.02 µM | 10.6 µM | 22.8 µM | 11.2 µM | 25.8 µM |
| O=c1[nH]c(=O)n(C2OC(CO)C(O)C(O)C2O)cc1F (centres undefined) | – | > 100 µM | – | > 100 | – | > 100 µM | – | > 100 µM | – | > 100 µM | – | > 100 µM | – | > 100 µM | – | > 100 µM | – | > 100 µM | – | > 100 µM |
| COc1ccc(-n2cc(-c3cc(OC)c(OC)c(OC)c3)[nH]c2=O)cc1Cl | 73.9 µM | > 100 µM | 35 | > 100 | > 100 | > 100 µM | 37.7 | > 100 µM | > 100 | > 100 µM | > 100 | > 100 µM | > 100 µM | > 100 µM | > 100 µM | > 100 µM | 6.69 µM | 28.8 µM | 40.8 µM | > 100 µM |
